From patent publication US10676514B2, “CDCA1-derived peptide and vaccine containing same” (ONCOTHERAPY SCIENCE, INC., priority 2014, dated 2020)

System: peptide-pulsed C1R-A11
Test: IFN-gamma ELISA of CTL lines and CTL clones (HLA-A*1101)
Format: cell-based, human
Conditions: for IFN-gamma production of CTL clones: CTL clones by limiting dilution
Protocol: CTLs were propagated in culture using methods similar to those disclosed by Riddell et al. (Walter E A et al., N Engl J Med 1995, 333(16): 1038-44; Riddell S R et al., Nat Med 1996, 2(2): 216-23). The CTLs were co-cultured in a total of 25 ml AIM-V medium containing 5% AS (AIM-V/5% AS) and 40 ng/ml anti-CD3 antibody with two types of Mitomycin C-treated human B lymphoblastoid cell lines at 5×10^6 cells/flask. One day after beginning of the culturing, 120 IU/ml IL-2 was added to the culture. On days 5, 8 and 11, a fresh AIM-V/5% AS medium containing 30 IU/ml IL-2 was added to the culture (Tanaka H et al., Br J Cancer 2001, 84(1): 94-9; Umano Y et al., Br J Cancer 2001, 84(8): 1052-7; Uchida N et al., Clin Cancer Res 2004, 10(24): 8577-86; Suda T et al., Cancer Sci 2006, 97(5): 411-9; Watanabe T et al., Cancer Sci 2005, 96(8): 498-506).
Dilution of CTLs was carried out to make 0.3, 1 and 3 cells/well in 96 round-bottomed microtiter plates (Nalge Nunc International). The CTLs were co-cultured with two types of Mitomycin C-treated human B lymphoblastoid cell lines at 1×10^4 cells/well in a total of 150 micro-l/well AIM-V/5% AS medium with 30 ng/ml anti-CD3 antibody and 125 IU/ml IL-2. Ten days later, IL-2 was added to the medium at 50 micro-l/well to reach a final concentration of 125 IU/ml. On day 14, the CTL activity was tested, and the CTL clones were propagated using the same method as described above (Uchida N et al., Clin Cancer Res 2004, 10(24): 8577-86; Suda T et al., Cancer Sci 2006, 97(5): 411-9; Watanabe T et al., Cancer Sci 2005, 96(8): 498-506).
Specifically, peptide-pulsed C1R-A11 (1×10^4 cells/well) was prepared as the stimulator cell. The induced CTLs, i.e., CTL lines and CTL clones, were used as the responder cell. The IFN-gamma ELISPOT assay and IFN-gamma ELISA were performed according to the manufacturer's manual.

KTKRLNELK (a peptide derived from CDCA1) [SEQ ID NO: 7]
IFN-gamma production of CTL clones (peptide-pulsed C1R-A11, listed as CDCA1-A1-9-219): potent IFN-gamma production | IFN-gamma production of CTL clones (peptide-pulsed C1R-A11, listed as CDCA1-A11-9-219): Potent IFN-gamma production | IFN-gamma production of CTL lines (CTL lines, peptide-pulsed vs non-pulsed target cells, HLA-A*1101): potent IFN-gamma production
